Patent US20070149456A1, “Epithelial sodium channel inhibiting agents and uses therefor” (University of Pittsburgh, priority 2005, published 2007)

Target: T1, wild-type ENaC co-expressed with prostasin (Mus musculus, UniProt Q61180+Q9WU38+Q9WU39)
T1 construct: expressed in transfected cells; host or cells: Xenopus laevis oocytes (cRNA co-injection)
Assay: Two-electrode voltage clamp in oocytes co-expressing ENaC and prostasin
Format: cell-based
Settings: α-26 1 μM and 10 μM, aprotinin 1 μM present
Source text: Oocyte Expression—cRNAs for α, β, γ mouse ENaC (wild-type and mutant) subunits and mouse prostasin were synthesized with T3 or T7 m-Message mMachineTM (Ambion, Austin, Tex.). Subunits carrying furin cleavage consensus site mutations and the corresponding wild-type subunits have amino-terminal HA and carboxyl-terminal V5 tags (Hughey, R. P., Bruns, J. B., Kinlough, C. L., Harkleroad, K. L., Tong, Q., Carattino, M. D., Johnson, J. P., Stockand, J. D., and Kleyman, T. R. (2004) J. Biol. Chem. 279, 18111-18114 18). Stage V-VI Xenopus laevis oocytes were pretreated with 1.5 mg/ml of type IV collagenase and injected with 0.5-2 ng of cRNA/subunit. Injected oocytes were maintained as previously reported (Carattino, M. D., Hill, W. G., and Kleyman, T. R. (2003), Arachidonic Acid Regulates Surface Expression of Epithelial Sodium Channels, J Biol. Chem. 278, 36202-36213 29).
Two-electrode Voltage Clamp—Two-electrode voltage clamp (TEV) was performed as previously described (Carattino, M. D., Hill, W. G., and Kleyman, T. R. (2003) J Biol. Chem. 278, 36202-36213 29). The extracellular solution (TEV solution) was (in mM): 110 NaCl, 2 KCl, 1.54 CaCl2, 10 HEPES, pH 7.4, or otherwise as indicated. […] ENaC-mediated whole cell Na^+ currents, at −60 mV,were defined as the amiloride-sensitive component of the current. […]

T1 sequence (Q61180 1-205): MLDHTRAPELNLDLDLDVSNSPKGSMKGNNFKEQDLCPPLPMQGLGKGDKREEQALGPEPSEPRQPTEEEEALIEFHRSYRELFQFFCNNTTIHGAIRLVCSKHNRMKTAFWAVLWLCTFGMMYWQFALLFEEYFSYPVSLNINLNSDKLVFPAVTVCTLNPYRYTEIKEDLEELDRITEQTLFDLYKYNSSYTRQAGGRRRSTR
T1 sequence (Q61180 232-699): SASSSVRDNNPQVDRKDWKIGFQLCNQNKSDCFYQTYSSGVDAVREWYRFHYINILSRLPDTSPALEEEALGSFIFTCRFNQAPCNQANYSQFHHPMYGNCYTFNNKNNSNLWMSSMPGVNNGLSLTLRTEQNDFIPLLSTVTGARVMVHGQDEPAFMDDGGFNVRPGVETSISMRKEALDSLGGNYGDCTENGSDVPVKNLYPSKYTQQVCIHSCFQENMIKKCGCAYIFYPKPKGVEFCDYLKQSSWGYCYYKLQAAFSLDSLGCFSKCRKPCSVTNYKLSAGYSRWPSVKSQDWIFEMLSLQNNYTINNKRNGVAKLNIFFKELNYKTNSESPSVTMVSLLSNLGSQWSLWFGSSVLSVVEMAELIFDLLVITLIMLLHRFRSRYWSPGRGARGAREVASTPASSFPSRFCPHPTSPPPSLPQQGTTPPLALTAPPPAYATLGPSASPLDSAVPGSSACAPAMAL
T1 sequence (Q9WU38 whole entry): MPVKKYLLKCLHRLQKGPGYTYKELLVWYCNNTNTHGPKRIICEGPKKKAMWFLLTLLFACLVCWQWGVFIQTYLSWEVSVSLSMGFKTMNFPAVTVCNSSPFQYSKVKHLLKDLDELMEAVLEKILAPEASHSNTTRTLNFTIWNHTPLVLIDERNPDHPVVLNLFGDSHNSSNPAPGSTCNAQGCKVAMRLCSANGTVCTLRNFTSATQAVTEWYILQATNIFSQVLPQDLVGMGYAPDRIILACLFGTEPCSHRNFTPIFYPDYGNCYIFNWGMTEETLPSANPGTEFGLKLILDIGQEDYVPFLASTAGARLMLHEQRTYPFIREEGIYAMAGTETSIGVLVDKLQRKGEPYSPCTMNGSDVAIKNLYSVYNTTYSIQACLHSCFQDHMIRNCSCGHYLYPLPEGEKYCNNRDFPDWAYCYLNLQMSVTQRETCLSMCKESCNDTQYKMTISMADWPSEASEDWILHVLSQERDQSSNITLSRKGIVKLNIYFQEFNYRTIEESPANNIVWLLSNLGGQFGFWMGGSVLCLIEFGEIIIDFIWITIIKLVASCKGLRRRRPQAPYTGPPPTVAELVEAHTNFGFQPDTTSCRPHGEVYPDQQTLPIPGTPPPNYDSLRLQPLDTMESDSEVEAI
T1 sequence (Q9WU39 1-143): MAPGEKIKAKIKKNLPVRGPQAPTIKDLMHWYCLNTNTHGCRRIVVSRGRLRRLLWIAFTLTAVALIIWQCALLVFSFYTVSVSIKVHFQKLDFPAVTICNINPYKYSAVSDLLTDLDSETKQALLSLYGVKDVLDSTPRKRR
T1 sequence (Q9WU39 187-655): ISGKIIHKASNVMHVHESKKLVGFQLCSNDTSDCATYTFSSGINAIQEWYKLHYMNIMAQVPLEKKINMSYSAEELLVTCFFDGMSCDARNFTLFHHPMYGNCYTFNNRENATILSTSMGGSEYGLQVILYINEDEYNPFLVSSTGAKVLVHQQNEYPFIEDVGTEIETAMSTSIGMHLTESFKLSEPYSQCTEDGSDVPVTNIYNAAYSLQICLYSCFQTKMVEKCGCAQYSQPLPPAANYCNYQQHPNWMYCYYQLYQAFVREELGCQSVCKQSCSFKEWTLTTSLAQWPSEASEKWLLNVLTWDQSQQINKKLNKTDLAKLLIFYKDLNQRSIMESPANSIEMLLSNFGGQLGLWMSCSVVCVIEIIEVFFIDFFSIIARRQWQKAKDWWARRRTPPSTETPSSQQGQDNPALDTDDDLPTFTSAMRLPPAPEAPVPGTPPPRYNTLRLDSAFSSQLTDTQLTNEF

Which “effect of prostasin co-expression on α-26-dependent inhibition of ENaC” value does the source give for “Ac-DLRGALPHPLQRLRTPPPPNPARSAR-NH2 [α-26]” here?
Its value is “significantly reduced the efficacy”.
